Reference: PubChem BioAssay (NCI)
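Results reflect a 48-hour exposure of cells in 96-well plates to compound at five concentrations. GI50 marks 50% less growth. TGI marks complete inhibition of growth.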

Tests used:
Assay in all cases: inhibition of tumour cell growth, NCI panel, 48 h
A498 renal = system: A498 renal
BT-549 breast = system: BT-549 breast
CAKI-1 renal = system: CAKI-1 renal
DU-145 prostate = system: DU-145 prostate
EKVX NSCLC = system: EKVX NSCLC
HCT-15 colon = system: HCT-15 colon
HT29 colon = system: HT29 colon
MCF7 breast = system: MCF7 breast
MDA-N = system: MDA-N
MOLT-4 leukemia = system: MOLT-4 leukemia
OVCAR-3 ovarian = system: OVCAR-3 ovarian
PC-3 prostate = system: PC-3 prostate
RXF 393 renal = system: RXF 393 renal
SF-268 CNS = system: SF-268 CNS
SK-OV-3 ovarian = system: SK-OV-3 ovarian
SNB-75 CNS = system: SNB-75 CNS
SW-620 colon = system: SW-620 colon
UACC-257 melanoma = system: UACC-257 melanoma

Compound | TGI (A498 renal) [µM] | TGI (BT-549 breast) [µM] | TGI (CAKI-1 renal) [µM] | TGI (DU-145 prostate) [µM] | TGI (EKVX NSCLC) [µM] | TGI (HCT-15 colon) [µM] | TGI (HT29 colon) [µM] | TGI (MCF7 breast) [µM] | TGI (MDA-N) [µM] | TGI (MOLT-4 leukemia) [µM] | TGI (OVCAR-3 ovarian) [µM] | TGI (PC-3 prostate) [µM] | TGI (RXF 393 renal) [µM] | TGI (SF-268 CNS) [µM] | TGI (SK-OV-3 ovarian) [µM] | TGI (SNB-75 CNS) [µM] | TGI (SW-620 colon) [µM] | TGI (UACC-257 melanoma) [µM] | GI50 (DU-145 prostate) [µM] | GI50 (OVCAR-3 ovarian) [µM]
O=C1N(c2ccccc2)C(=S)/C(=C/c2ccc(Cl)cc2)N1c1ccc(Cl)cc1 | > 100 | > 100 | > 100 | > 100 | > 100 | > 100 | > 100 | > 100 | > 100 | 13.5 | > 100 | > 100 | > 100 | > 100 | 95.7 | 56.2 | > 100 | > 100 | – | –
C=CC[C@H](N=C(SC)SC)C(=O)N1C(=O)N(C)[C@@H](C)[C@H]1c1ccccc1 | > 100 | > 100 | > 100 | > 100 | 78.4 | > 100 | > 100 | > 100 | > 100 | > 100 | > 100 | > 100 | > 100 | > 100 | > 100 | > 100 | > 100 | > 100 | – | –
Cc1cc2ccc(N)nc2[nH]c1=O | – | > 100 | > 100 | > 100 | > 100 | > 100 | > 100 | > 100 | > 100 | – | – | > 100 | > 100 | > 100 | > 100 | > 100 | > 100 | > 100 | – | –
O=c1[nH]c2ccc([N+](=O)[O-])cc2nc1/C=C(\O)c1ccccc1 | 47.4 | > 100 | 62 | > 100 | > 100 | > 100 | > 100 | > 100 | > 100 | > 100 | 99.2 | > 100 | 49.8 | 58.3 | 33.7 | 58.3 | – | > 100 | – | –
CC(C)NC(=O)OCc1c(COC(=O)NC(C)C)c(-c2cc[n+](COC(=O)C3CCCCC3)cc2)n2c1CCC2 | > 100 | > 100 | > 100 | > 100 | > 100 | > 100 | > 100 | > 100 | > 100 | > 100 | > 100 | > 100 | > 100 | > 100 | > 100 | > 100 | > 100 | > 100 | – | –
CN(C)CCCNC(=O)c1cn2c(ccc3sc4ccccc4c(=O)c32)n1 | 30.7 | 37.8 | 14.8 | 25 | 31.6 | 10.7 | 2.74 | 8.48 | 9.88 | – | 24.1 | 9.43 | 21.8 | 9.96 | 30.7 | 30.5 | 3.15 | 30.3 | – | –
Cc1csc(-n2c(C)nc3cc(Cl)ccc3c2=O)n1 | > 100 | > 100 | > 100 | > 100 | 81.4 | > 100 | > 100 | > 100 | > 100 | > 100 | > 100 | > 100 | > 100 | > 100 | > 100 | > 100 | > 100 | > 100 | – | –
CC/C(=C\c1ccc(OC)cc1)c1ccc(OC)cc1 | > 100 | > 100 | > 100 | > 100 | > 100 | > 100 | > 100 | > 100 | > 100 | > 100 | > 100 | > 100 | > 100 | > 100 | > 100 | > 100 | > 100 | > 100 | – | –
Cc1ccc(/C=C2/N=C(N/N=C\c3ccccc3)NC2=O)cc1 | – | > 100 | > 100 | > 100 | > 100 | > 100 | > 100 | > 100 | 88.2 | 72.2 | > 100 | > 100 | 66 | > 100 | > 100 | > 100 | > 100 | > 100 | – | –
CCOc1cc2c(cc1O)C(N)C[C@@H]1[C@@H]2CC[C@]2(C)[C@@H](O)CC[C@@H]12 (some centres not stated) | > 100 | > 100 | > 100 | > 100 | > 100 | > 100 | > 100 | > 100 | > 100 | > 100 | > 100 | > 100 | > 100 | > 100 | – | 95.4 | > 100 | > 100 | > 100 | 44.9
CN(C)CCNC(=O)c1c(O)ccc2c1c1c(n2CCc2ccccc2)C(=O)c2ccccc2C1=O | 31.9 | 32.6 | 19.2 | 20.9 | 28.5 | 15.6 | 19.3 | 12.1 | 5.34 | 16.2 | 28.1 | 29.1 | 5.17 | 15 | 31.5 | 28.1 | 20.6 | 10.4 | – | –
O=C(N/N=C\c1ccc([N+](=O)[O-])s1)c1ccncc1 | 53 | 27.2 | 49.2 | 79.3 | 45.6 | > 44 | 15.9 | 9.96 | > 55.8 | > 63.2 | 8.06 | > 76.8 | 56.6 | 55 | > 100 | > 100 | > 45.4 | 31.8 | – | –
Cc1ccc(/C=C2\N=C(N3CCCC(CO)C3)NC2=O)cc1 (configuration not stated) | – | > 100 | > 100 | > 100 | > 100 | > 100 | > 100 | > 100 | > 100 | > 100 | > 100 | > 100 | > 100 | > 100 | > 100 | > 100 | > 100 | > 100 | – | –
COc1ccc(CNc2nc3ccccc3nc2C(=O)O)cc1 | > 100 | > 100 | > 100 | > 100 | > 100 | 60.9 | > 100 | > 100 | > 100 | – | > 100 | > 100 | > 100 | > 100 | – | > 100 | > 100 | > 100 | – | –
COc1cc(/C=N/NC2=NCCN2)ccc1O | – | > 100 | – | > 100 | > 100 | > 100 | > 100 | > 100 | > 100 | > 100 | > 100 | > 100 | > 100 | > 100 | > 100 | > 100 | > 100 | > 100 | – | –
O=[N+]([O-])/C(C(Cl)=C(Cl)Cl)=C(/Nc1ccccc1)Sc1ccccc1 | 38.3 | 66.9 | 29.5 | 41.4 | 38 | 41.6 | 48.7 | 75.2 | 56.3 | 46.7 | 30.1 | 34.9 | 40.3 | 28.2 | 42.9 | – | 51.1 | 35.6 | – | –
O=C1C=C(N2CCN(CCOCCO)CC2)C(=O)c2c(O)ccc(O)c21 | 27.8 | 25.5 | 29.3 | 10.5 | 33.9 | 9.55 | 15.5 | 2.98 | 3.29 | – | 5.35 | 10.7 | 28.8 | 37.1 | 38.8 | 30.6 | 6.48 | 3.11 | – | –
CCNC(=S)N/N=C(\C)c1cccc(C)n1 | 45.3 | > 100 | – | 73.1 | > 100 | > 100 | > 100 | > 100 | > 100 | > 100 | > 100 | > 100 | > 100 | 17.2 | > 100 | > 100 | > 100 | > 100 | – | –
COc1cc2c3c(cc(Cl)nc3c1OC)C(O)(CC(=O)c1ccccc1)C(=O)N2 (configuration not stated) | 32.3 | 30.4 | 31.6 | 30.1 | 10.4 | 50.9 | 44.7 | 4.02 | 3.65 | – | 30.2 | 29.2 | 27.4 | 13.7 | 32.2 | 28.6 | > 44.7 | 21.4 | – | –
Cc1ccc(S[C@@H](C)[C@@](O)(C(N)=O)c2ccccc2)cc1 | – | > 100 | 30.7 | > 100 | > 100 | > 100 | > 100 | > 100 | > 100 | 33.3 | > 100 | > 100 | > 100 | > 100 | > 100 | > 100 | > 100 | > 100 | – | –
CCCCCCCCCCCCO[P+](=O)OCCCCCCCCCCCC | > 100 | > 100 | – | > 100 | > 100 | > 100 | > 100 | > 100 | > 100 | > 100 | > 100 | > 100 | > 100 | > 100 | > 100 | > 100 | > 100 | 62.2 | – | –
